Measurements reported in US10538802B2, “Polypeptide substrate for the detection of von Williebrand factor cleaving protease ADAMTS13” (IMMUCOR GTI DIAGNOSTICS, INC., priority 2011, dated 2020).
No end group written: not given here.

Tests used:
ADAMTS13 = molecular target: T1, ADAMTS13 (Homo sapiens, UniProt Q76LX8); test: ADAMTS13 activity assay with fluorogenic (FRET) polypeptide substrate and diluted plasma samples; assay type: biochemical; conditions: for Assigned/Expected % Normal ADAMTS13 Activity Values Based on FRETS-VWF73 Substrate: incubation 30 Minutes
T1 construct: tissue Gen-Probe GTI Diagnostics (ATS-13 kit calibrators, controls and proficiency samples); George King Biomedical Inc. (FACT, A-FACT, B-FACT plasmas) ATS-13; host or cells: plasma
T1 sequence (Q76LX8 75-1427): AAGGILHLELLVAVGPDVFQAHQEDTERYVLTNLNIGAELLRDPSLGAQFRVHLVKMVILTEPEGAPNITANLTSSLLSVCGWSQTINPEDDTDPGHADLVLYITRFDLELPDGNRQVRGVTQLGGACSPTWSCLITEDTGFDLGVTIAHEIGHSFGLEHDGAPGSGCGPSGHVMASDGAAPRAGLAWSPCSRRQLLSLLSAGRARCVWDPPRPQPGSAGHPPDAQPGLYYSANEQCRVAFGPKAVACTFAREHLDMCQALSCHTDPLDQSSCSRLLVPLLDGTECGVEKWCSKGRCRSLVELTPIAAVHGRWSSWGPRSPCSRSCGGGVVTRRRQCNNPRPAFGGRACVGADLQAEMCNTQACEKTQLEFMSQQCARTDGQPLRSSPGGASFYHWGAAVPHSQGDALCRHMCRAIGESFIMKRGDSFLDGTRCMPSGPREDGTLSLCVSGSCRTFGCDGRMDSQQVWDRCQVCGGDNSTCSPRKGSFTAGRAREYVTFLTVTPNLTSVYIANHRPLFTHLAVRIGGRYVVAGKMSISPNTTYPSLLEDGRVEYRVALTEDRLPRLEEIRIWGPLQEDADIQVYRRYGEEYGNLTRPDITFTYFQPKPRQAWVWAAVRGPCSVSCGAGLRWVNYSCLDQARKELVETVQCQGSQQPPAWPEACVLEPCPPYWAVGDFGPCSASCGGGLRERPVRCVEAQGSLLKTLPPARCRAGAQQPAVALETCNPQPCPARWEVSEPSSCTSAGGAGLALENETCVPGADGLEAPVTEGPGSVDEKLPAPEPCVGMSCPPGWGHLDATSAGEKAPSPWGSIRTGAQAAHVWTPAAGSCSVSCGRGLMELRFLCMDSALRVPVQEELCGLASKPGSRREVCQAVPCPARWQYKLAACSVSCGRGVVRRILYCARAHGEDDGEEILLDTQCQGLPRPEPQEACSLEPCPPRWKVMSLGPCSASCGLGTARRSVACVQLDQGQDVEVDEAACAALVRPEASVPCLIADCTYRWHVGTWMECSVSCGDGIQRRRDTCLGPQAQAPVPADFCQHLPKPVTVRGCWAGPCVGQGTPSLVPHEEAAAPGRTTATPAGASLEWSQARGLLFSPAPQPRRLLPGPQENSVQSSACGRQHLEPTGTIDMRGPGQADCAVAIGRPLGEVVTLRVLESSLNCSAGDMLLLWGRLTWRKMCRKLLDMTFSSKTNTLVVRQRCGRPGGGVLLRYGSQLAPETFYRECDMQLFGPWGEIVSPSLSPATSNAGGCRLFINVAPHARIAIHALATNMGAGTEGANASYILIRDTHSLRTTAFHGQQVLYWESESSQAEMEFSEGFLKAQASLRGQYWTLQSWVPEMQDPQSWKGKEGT
Experimental: The procedure in this example was performed substantially as described in Kokame, K., Y. Nobe, Y. Kokubo, A. Okayama, and T. Miyata. 2005. FRETS-VWF73, a first fluorogenic substrate for ADAMTS13 assay. Br. J. Haematol. 129:93-100, but using SEQ ID NO: 1 in place of the 73 amino acid substrate described therein. The FRETS-VWF73 substrate solution was dissolved in 25% dimethyl sulphoxide/water to prepare the 100 microM stock solution. The GTI FRET4 SEQ ID NO: 1 was dissolved in 100% DMSO. Both substrates were diluted to equal concentrations using ATS-13 substrate buffer (Gen-Probe GT1 Diagnostics, Inc., U.S.A., Cat#ATS-13).
Plasma samples were diluted according to the ATS-13 Direction Insert using ATS-13 specimen diluent (Gen-Probe GTI Diagnostics, Inc., U.S.A., Cat# ATS-13). The diluted plasma samples were mixed with the diluted substrate and the fluorescence was read at 0, 5, 10, 15, 20, 30, 45 minutes using a Biotek FLX800 at the appropriate excitation and emission wavelengths for each substrate.
The fluorophore-quencher pair in the SEQ ID NO: 1 polypeptide substrate is FAM-5/TQ 2^Tm (Ex 485±20; Em 528±20; AAT Bioquest, Inc. Sunnyvale, Calif. U.S.A.). The fluorophore and quencher pair of FRETS-VWF73 (Nma/Dnp) described in Kokame has been substituted with FAM-5 and TQ_2 respectively in GTI_FRET4 SEQ ID NO: 1. Furthermore, in the SEQ ID NO: 1 polypeptide the position of the fluorophore (FAM-5) and quencher (TQ_2) has been swapped relative to the position of the fluorophore and quencher of the FRETS-VWF73 construct. Therefore, for GTI_FRET4 SEQ ID NO: 1, attachment of the fluorophore (FAM-5) occurs by substituting asparagine with cystine at position 15. The quencher (TQ_2) was attached by substituting glutamine with lysine at position 4 (FIG. 2 and Table 4).
For this experiment, substrate concentration and fluorescence reader settings determined on the previous experiment are used. The specimens tested (listed in Table 3), include a panel of proficiency samples prepared for use with ATS-13 (Gen-Probe GTI Diagnostics, Inc., U.S.A., Cat# ATS-13) which included samples with normal or deficient ADAMTS13 activity levels. In addition, six Factor Assay ConTrol plasma were used (2 FACT, 2 A-FACT and 2 B-FACT, from George King Biomedical Inc., Kansas, USA). The assays for the SEQ ID NO: 1 substrate and for the prior art FRETS-VWF73 assay were performed generally as according to the procedure described in Example 1. Substrate is prepared according to the conditions used for initial testing of the substrate, which prepared the molar amount of SEQ ID NO: 1 polypeptide substrate used in the assay to be equivalent to the molar amount of FRETS-VWF73 used in the prior art. The […] assays were read at 0, 5, 10, 15, 20, 30, 45 minutes.
Testing of substrate for cleavability by ADAMTS13 is determined as is generally described in Example 1. […]

[1] = Solubility of the SEQ ID NO: 7 polypeptide substrate (working solution centrifuged, pellet observed); assay type: physicochemical
Experimental: 250 .micro.L of working solution is prepared as above. The solution is vortexed vigorously and appears to be in solution. The solution is centrifuged at ˜12,000 g for about 2 minutes. After centrifugation, a very small pink pellet is noted at the bottom of the tube. […] Another tube is prepared as above substituting water for the substrate buffer. This tube is also centrifuged. Once again a pink pellet is observed in the bottom of the tube. The pellet observed in the water solution is noticeably larger than the pellet observed in the substrate buffer solution.

Row | Sequence | reaction time in the ADAMTS13 assay (ADAMTS13) [min] | trend line of the calibration curve (ADAMTS13) | difference between Calibrator A and E, dynamic range (ADAMTS13; Example 2, at 30 minutes) [RFU] | Assigned/Expected % Normal ADAMTS13 Activity Values Based on FRETS-VWF73 Substrate (ADAMTS13; sample Calibrator A) [% Normal] | Assigned/Expected % Normal ADAMTS13 Activity Values Based on FRETS-VWF73 Substrate (ADAMTS13; sample Calibrator B) [% Normal] | Assigned/Expected % Normal ADAMTS13 Activity Values Based on FRETS-VWF73 Substrate (ADAMTS13; sample Calibrator C) [% Normal] | Assigned/Expected % Normal ADAMTS13 Activity Values Based on FRETS-VWF73 Substrate (ADAMTS13; sample Calibrator D) [% Normal] | Assigned/Expected % Normal ADAMTS13 Activity Values Based on FRETS-VWF73 Substrate (ADAMTS13; sample Calibrator E) [% Normal] | Assigned/Expected % Normal ADAMTS13 Activity Values Based on FRETS-VWF73 Substrate (ADAMTS13; sample MON110707) | Assigned/Expected % Normal ADAMTS13 Activity Values Based on FRETS-VWF73 Substrate (ADAMTS13; sample Positive Control High) | Assigned/Expected % Normal ADAMTS13 Activity Values Based on FRETS-VWF73 Substrate (ADAMTS13; sample Positive Control Low) | Assigned/Expected % Normal ADAMTS13 Activity Values Based on FRETS-VWF73 Substrate (ADAMTS13; sample UAMS041609) [% Normal] | Assigned/Expected % Normal ADAMTS13 Activity Values Based on FRETS-VWF73 Substrate (ADAMTS13; sample VF) [% Normal] | solubility in water compared with substrate buffer ([1]; pellet size after centrifugation) | solubility in the working solution as prepared ([1]; substrate buffer, centrifuged ~12,000 g about 2 minutes)
1 | DREQAPNLVYMVTGNPASDEIKRLPGDIQVVPIGVGPNANVOELERIGWPNAPILIQDFLTLPREAPDLVLQR [FRETS-VWF73, reference compound] | 30 | polynomial | 2500 | 0 | 9 | 34 | 55 | 102 | ~90-100 % Normal | 36-54 % Normal | 6-17 % Normal | ~35 | ~20 | – | –
2 | DREKAPNLVYMVTGCPASDEIKRLPGDIIGWPNAPILIQDFETLPREAPDLVLQR [GTI_FRET5] | – | – | – | – | – | – | – | – | – | – | – | – | – | less soluble in water than in the buffer | not completely soluble
